Measurements from patent US20260209233A1, “ANNULATED PYRIDAZINE DERIVATIVE” (Tenvie Therapeutics, Inc., priority 2022, published 2026).
Where a name gives a salt, the structure may show the parent alone.

Target: T1, NLRP3 inflammasome (Homo sapiens, UniProt Q96P20)
T1 construct: endogenous in cells; host or cells: THP-1 cells, PMA-differentiated and stimulated with LPS and ATP
Assay: THP-1 IL-1β production inhibition test
Type: cell-based
Details: PMA-treated THP-1 cells, LPS 50 ng/ml + ATP 5 mM, 2 hours, IL-1β in supernatant by ELISA
Procedure: Test Example 1: THP-1 IL-1β Production Inhibition Test
PMA (phorbol myristate acetate, SIGMA, P1585) was added to THP-1 cells in an amount of 50 ng/mL to culture the cells for 2 days at 37° C. The culture medium was replaced with a serum-free RPMI-1640 medium, and a compound with a known concentration was added thereto to culture the cells at 37° C. for 15 minutes. LPS (Lipopolysaccharide, SIMGA, L2880) and ATP (Adenosine triphosphate, SIGMA, A2383) were added so that final concentrations become 50 ng/ml and 5 mM, respectively, followed by culturing at 37° C. for 2 hours. The supernatants were collected to measure the concentrations of IL-1β by ELISA (DuoSet ELISA human IL-1β, R&D Systems, DY201). The IL-1β concentrations were plotted against log concentrations of test compounds, and an IC50 value was calculated by sigmoid Emax model nonlinear regression analysis.
Example compounds were confirmed to inhibit NLRP3 inflammasome activation and IL-1β production.

T1 sequence (Q96P20 whole entry): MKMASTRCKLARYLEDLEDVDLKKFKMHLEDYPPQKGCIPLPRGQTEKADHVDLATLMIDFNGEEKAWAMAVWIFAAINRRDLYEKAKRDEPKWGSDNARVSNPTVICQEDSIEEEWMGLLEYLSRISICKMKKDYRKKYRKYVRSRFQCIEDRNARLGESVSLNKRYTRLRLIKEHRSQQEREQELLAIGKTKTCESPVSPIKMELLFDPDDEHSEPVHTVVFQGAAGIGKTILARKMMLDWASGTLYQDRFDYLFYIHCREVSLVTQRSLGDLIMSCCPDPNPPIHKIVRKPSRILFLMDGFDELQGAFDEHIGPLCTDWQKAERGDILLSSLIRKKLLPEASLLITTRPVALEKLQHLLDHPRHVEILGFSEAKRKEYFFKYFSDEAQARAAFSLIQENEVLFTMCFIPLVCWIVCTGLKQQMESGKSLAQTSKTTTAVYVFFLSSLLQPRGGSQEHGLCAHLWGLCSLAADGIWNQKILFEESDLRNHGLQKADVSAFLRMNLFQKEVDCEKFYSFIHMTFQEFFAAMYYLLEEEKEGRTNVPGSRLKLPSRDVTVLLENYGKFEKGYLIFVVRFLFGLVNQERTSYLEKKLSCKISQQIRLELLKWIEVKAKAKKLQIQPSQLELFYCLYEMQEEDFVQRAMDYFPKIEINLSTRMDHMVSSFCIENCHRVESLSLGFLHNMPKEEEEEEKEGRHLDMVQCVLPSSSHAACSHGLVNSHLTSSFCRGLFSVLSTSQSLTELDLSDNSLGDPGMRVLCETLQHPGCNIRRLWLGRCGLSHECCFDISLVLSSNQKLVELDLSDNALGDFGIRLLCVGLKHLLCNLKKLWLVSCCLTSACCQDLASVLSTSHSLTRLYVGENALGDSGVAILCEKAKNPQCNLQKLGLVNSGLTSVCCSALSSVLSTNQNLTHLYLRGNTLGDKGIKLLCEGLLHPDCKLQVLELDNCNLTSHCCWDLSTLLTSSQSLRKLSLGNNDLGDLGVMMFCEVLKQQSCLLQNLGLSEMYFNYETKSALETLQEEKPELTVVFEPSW

IC50 [nM]	SMILES
1900	Cc1c(-c2ccc(C(F)(F)F)cc2O)nnc2c1CCCN2[C@@H]1CCN(C)C[C@H]1O [Example 16]
15	Cc1cc(C(F)(F)F)cc(O)c1-c1cc2c(nn1)N([C@@H]1CCCC[C@H]1O)CCC2 [Example 18]
42	Cc1c(-c2ccc(C(F)(F)F)cc2O)nnc2c1CCCN2[C@@H]1CCCN(CCO)C1 [Example 27, 2-{8-[(3R)-1-(2-hydroxyethyl)piperidin-3-yl]-4-methyl-5,6,7,8-tetrahydropyrid[2,3-c]pyridazin-3-yl}-5-(trifluoromethyl)phenol dihydrochloride]
6.3	Cc1c(-c2ccc(C(F)(F)F)cc2O)nnc2c1CCCN2[C@@H]1CCCN(C)C1 [Example 2, 2-{4-methyl-8-[(3R)-1-methylpiperidin-3-yl]-5,6,7,8-tetrahydropyrido[2,3-c]pyridazin-3-yl}-5-(trifluoromethyl)phenol]
200	Cc1c(-c2ccc(C(F)(F)F)cc2O)nnc2c1CCN2C[C@@H](C)O [Example 20]
